Measurements as given in publication PMC5608556, “Photo-affinity labelling and biochemical analyses identify the target of trypanocidal simplified natural product analogues” (PLoS Neglected Tropical Diseases, 2017).

Key:
[1] = test system: ATP production (oxidative phosphorylation) in digitonin-permeabilised PF T. brucei; assay: ATP production assay in digitonin-permeabilised cells; format: cell-based, Trypanosoma brucei; settings: 30 min; for Inhibition of ATP production from Gly-3P / Effect on ATP production from Gly-3P: glycerol-3-phosphate as substrate; for Inhibition of ATP production from Gly-3P / Effect on ATP production from succinate: compound 1, AA, OA 200 μM, DNP 1 mM; for Effect on ATP production from succinate: succinate 2.5 mM as substrate; for Effect on ATP production from succinate / Effect on ATP production from Gly-3P: malonate 5 mM, rotenone, SHAM 100 μM
Source text: We next sought to identify the point at which ATP production was blocked using digitonin-permeabilised cells. Digitonin permeabilises the plasma membrane of trypanosomatids, but crucially, leaves the glycosomes and mitochondria intact and fully functional, allowing them to be probed with compartment-specific ATP-yielding substrates. Digitonin-permeabilised PF T. brucei were probed with succinate, which is readily transported across the PF T. brucei mitochondrial membrane by the dicarboxylic acid carrier and can yield only oxidative phosphorylation-derived ATP through the FoF1-ATP synthase (complex V).
Fig 5 Inhibition of ATP production in digitonin-permeabilsed cells. (A-C) Digitonin-permeabilised PF T. brucei were probed with substrates in the presence of inhibitors and resulting ATP production quantified by bioluminescence assay. See experimental section for details. Inhibitors were used at saturating concentrations to ensure that relevant enzyme activities were ablated. Key: NS, no substrate; NI, no inhibitor; SHAM, salicylhydroxamic acid (TAO inhibitor at 100 μM); Rotenone (complex I inhibitor at 100 μM); Malonate (complex II inhibitor at 5 mM); AA, antimycin A (complex III inhibitor at 200 μM); OA, oligomycin A (complex V inhibitor at 200 μM); DNP, 2,4-dinitrophenol (protonophore at 1 mM); Comp.1, compound 1 at 200 μM. Background relative light units (RLU) were subtracted from measurements and % ATP production normalised to the no inhibitor control. Data were averaged from three independent experiments, each performed in quadruplicate. Error bars show standard deviations. T-tests were performed against no inhibitor controls (black asterisks) and compound 1 (grey open circles) and significance values presented: p < 0.00005 (*** / °°°), p < 0.0005 (** / °°), p < 0.005 (* / °). (A) Succinate was used as a substrate to generate ATP solely through oxidative phosphorylation (OxPhos). Oxidative phosphorylation inhibitors malonate, AA, OA and DNP virtually eliminated all ATP production. […] (B) α-ketoglutarate yields 40% ATP through substrate-level phosphorylation (SubPhos) and 60% through oxidative phosphorylation. Malonate, AA, OA and DNP inhibit oxidative phosphorylation, but not substrate-level phosphorylation. […] (C) Gly-3P acts as an alternative entry site to the electron transport chain yielding ATP through oxidative phosphorylation and the glycosome (GlyPhos). Malonate has no effect, as it acts at a different entry point. AA, OA and DNP inhibit oxidative phosphorylation, but not glycosomal phosphorylation.
ATP production assays were carried out in duplicate, and three independent assays were conducted. Cells were digitonin-permeabilised as previously described. Briefly, cells were washed in PBS and permeabilised for 5 min at a density of 1x10^8 cells/mL in SoTE buffer (20 mM Tris.HCl (pH 7.5), 2 mM EDTA pH 7.5, 600 mM sorbitol) supplemented with 0.015% (w/v) digitonin. Permeabilised cells were pelleted at 5000 g for 3 min at 4°C and suspended to 8.4x10^7 cells/mL in ATP assay buffer (20 mM Tris.HCl (pH 7.4), 15 mM KH2PO4, 0.6 M sorbitol, 10 mM MgSO4, 2.5 mg/mL fatty acid-free BSA.
ATP production assays were carried out in 75 μl volumes in 96-well plates with a final PF T. brucei cell density of 6.7 x 10^7 cells/mL as previously reported. […] B-THP-Ts, antimycin A (AA) and oligomycin A (OA) were used at 200 μM, Dinitrophenol (DNP) at 1 mM, malonate at 5 mM, rotenone at 100 μM and salicylhydroxamic acid (SHAM) at 100 μM. 59.25 μL digitonin-permeabilised cells (prepared above) were added to 0.75 μl inhibitor dissolved in DMSO (or 0.75 μL DMSO without inhibitor for no inhibitor control) and incubated for 10 min to allow inhibitors to take effect. Substrate was added to 2.5 mM and incubated for 10 min. Reactions were started with the addition of ADP to 60 μM and incubated at RT for 30 min. […]

[2] = test system: mitochondrial membrane potential (Δψm) in live PF T. brucei; assay: MitoTracker monitoring of mitochondrial membrane potential; format: cell-based, Trypanosoma brucei; settings: 2 h, AA and OA 2 μM, DNP 1 mM
Source text: To determine which mitochondrial complex of oxidative phosphorylation was targeted by B-THP-T compounds, their effects on the mitochondrial membrane potential (Δψm) were monitored in live PF T. brucei (Fig 6A). MitoTracker Red CMXRos, like tetramethylrhodamine and safranine, accumulates in active mitochondria and the degree of accumulation is dependent on the Δψm, however, accumulation of MitoTracker Green FM is independent of the Δψm and the ratio of red/green uptake can therefore be used to determine the Δψm normalised to the number and size of mitochondria present. […] Similarly, compounds 1 and 3 elevated the mitochondrial membrane potential (by 2-3-fold), confirming that they, like OA, reduce oxidative phosphorylation by the inhibition of the FoF1-ATP synthase.
Fig 6 Effects of compounds on mitochondrial membrane potential. PF T. brucei were incubated with inhibitors and MitoTracker Red CMXRos, which is an indicator of the mitochondrial membrane potential (Δψm). (A) MitoTracker-loaded cells were imaged to qualitatively detect differences in the Δψm. […] (B) Fluorescence of MitoTracker-loaded cells were quantified using a microplate reader and normalised to MitoTracker green fluorescence.
2 x 10^6 PF T. brucei cells were incubated in 1 mL GF-SDM-79 growth media supplemented with/without inhibitors for 2 h. B-THP-Ts were used at 40 μM, AA and OA at 2 μM, DNP at 1 mM and SHAM at 100 μM. MitoTracker Red CMXRos and MitoTracker Green FM were added to 100 nM and 1 μM respectively and incubated for a further 10 min. Cells were washed in growth medium and the MitoTracker reagents chased into the mitochondrion for 10 min in fresh growth medium supplemented with inhibitors. Cells were washed again in growth medium to remove unincorporated MitoTracker reagents, pelleted, suspended in 100 μL 4% PFA in PBS, and fixed at RT in the dark for 10 min. Fixed cells were pelleted and suspended in 100 μl PBS. Cells were transferred to poly-lysine-coated slides and mounted with DAPI-containing SlowFade mounting medium (Invitrogen). Fluorescence images were collected with a DeltaVision microscope (as detailed above) to show MitoTracker localisation and comparative intensity.
1 mL of cells at 1 x 10^7 cells/mL were labelled as above. However, instead of fixing cells they were resuspended in 200 μL growth medium and transferred to 96-well plates. Fluorescences were recorded (excitation at 540/35 nm, emission at 590/10 nm for MitoTracker Red CMXRos, and excitation at 485/20 nm, emission at 528/20 nm for MitoTracker Green FM) using a BioTek FLX800 spectrofluorimeter and Gen5 Reader Control 2.0 software, in much the same way as others have recorded previously. Background fluorescence values were subtracted from each and MitoTracker Red fluorescences normalised against their MitoTracker Green FM counterparts. Membrane potentials were then calculated relative to the uninhibited controls.

HeLa = assay: Toxicity (EC50) in HeLa cells; format: cell-based; settings: Homo sapiens, footnote b, read-out: EC50 values Mammal HeLa
Source text: Fig 1 Labelling and detection of B-THP-T target(s). (A) Structures of chamuvarinin and simplified analogues thereof as probes used in this study and their respective toxicity in selected cell lines. Bi-functional compound 3 contains a diazirine (blue) to cross-link the compound to its target and an alkyne handle (red) to which an azide-containing reporter probe can be added. Mono-functional compound 2 contains the diazirine to cross-link to its target but lacks the alkyne handle and cannot be appended with an azide reporter probe. Lead B-THP-T, compound 1, lacks both diazirine and alkyne. The additional functional groups on compounds 2 and 3 are minor alterations, which have little effect on inhibitor potency. (B) Overview of the in vivo pulse-chase photo-affinity labelling procedure. B-THP-T were incubated with live PF T. brucei cells and trafficked to their targets. Following UV-irradiation, only compounds containing a diazirine (i.e. compounds 2 and 3) could cross-link with target proteins. The subsequent “click reaction” appended the conjugated B-THP-T with a reporter probe as long as an alkyne handle was present (i.e. on compound 3). Refer to the experimental section for details. (C) Detection of Cy5.5-tagged proteins following photo-affinity labelling. Proteins were separated by SDS-PAGE and conjugated Cy5.5 was detected at 700 nm. […]

T. brucei BSF = assay: Toxicity (EC50) in bloodstream form T. brucei; format: cell-based, Trypanosoma brucei; settings: Trypanosoma brucei; bloodstream form; footnote b
Source text: (§1) Fig 1 Labelling and detection of B-THP-T target(s). (A) Structures of chamuvarinin and simplified analogues thereof as probes used in this study and their respective toxicity in selected cell lines. Bi-functional compound 3 contains a diazirine (blue) to cross-link the compound to its target and an alkyne handle (red) to which an azide-containing reporter probe can be added. Mono-functional compound 2 contains the diazirine to cross-link to its target but lacks the alkyne handle and cannot be appended with an azide reporter probe. Lead B-THP-T, compound 1, lacks both diazirine and alkyne. The additional functional groups on compounds 2 and 3 are minor alterations, which have little effect on inhibitor potency. (B) Overview of the in vivo pulse-chase photo-affinity labelling procedure. B-THP-T were incubated with live PF T. brucei cells and trafficked to their targets. Following UV-irradiation, only compounds containing a diazirine (i.e. compounds 2 and 3) could cross-link with target proteins. The subsequent “click reaction” appended the conjugated B-THP-T with a reporter probe as long as an alkyne handle was present (i.e. on compound 3). Refer to the experimental section for details. (C) Detection of Cy5.5-tagged proteins following photo-affinity labelling. Proteins were separated by SDS-PAGE and conjugated Cy5.5 was detected at 700 nm. Lanes 1–3 correspond to usage of compounds 1–3 respectively. Several proteins in lane 3 were conjugated with Cy5.5 via labelling with bi-functional compound 3. […]

T. brucei PF = assay: Toxicity (EC50, cell viability) in procyclic form T. brucei; format: cell-based; settings: Trypanosoma brucei, live cells, 72 h incubation, footnote a
Source text: as §1
The potency of lead B-THP-T, compound 1, was determined against oxidative phosphorylation in dose-response assays in digitonin-permeabilised PF T. brucei.
Supplementary file pntd.0005886.s001.tiff: S1 Fig Dose-response of B-THP-T compounds in PF T. brucei. EC50 values were determined for compounds 1–3 in PF T. brucei. […]

Molecule | Inhibition of ATP production from Gly-3P [1] | Effect on ATP production from succinate [1] | Effect on mitochondrial membrane potential (Δψm) [2] | EC50 (HeLa) | EC50 (T. brucei BSF) | EC50 (T. brucei PF) | Effect on ATP production from Gly-3P [1]
O=[N+]([O-])c1ccc(O)c([N+](=O)[O-])c1 [2,4-dinitrophenol] | 67 ± 13% | almost abolished ATP production | decrease the mitochondrial membrane potential | – | – | – | –
OCCCC[C@H]1CC2(C[C@@H](Cn3cc([C@@H]4CCC[C@H](CCCCOCc5ccccc5)O4)nn3)O1)N=N2 [Compound 2, 4-((5S,7S)-7-((4-((2S,6S)-6-(4-(benzyloxy)butyl)tetrahydro-2H-pyran-2-yl)-1H-1,2,3-triazol-1-yl)methyl)-6-oxa-1,2-diazaspiro[2.5]oct-1-en-5-yl)butan-1-ol] | – | – | – | 20.9 ± 3 µM | 11.8 ± 0.8 µM | 8.9 ± 0.2 µM | –
oligomycin A | 65 ± 21% | almost abolished ATP production | elevates the Δψm | – | – | – | –
C=C(C)[C@H]1Cc2c(ccc3c2O[C@@H]2COc4cc(OC)c(OC)cc4[C@@H]2C3=O)O1 [rotenone] | – | no significant effect | – | – | – | – | no effect
O=C(NO)c1ccccc1O [salicylhydroxamic acid] | – | no significant effect | – | – | – | – | no effect
